Source: PubChem BioAssay (NCI)
Values joined by “and” are separate entries in the source; they are usually repeats but may differ in a detail not shown here. Equal entries are not always repeated.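 Step 1: Grow cells in 96-well plates. Step 2: Expose to compound for 48 hours at 5 concentrations. Step 3: Interpolate endpoints linearly; if unreached, use highest concentration. Here, GI50 denotes the concentration required for 50% inhibition of growth. TGI marks complete inhibition of growth.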

How the values were obtained:
Assay in all cases: NCI anticancer screen, dose series, 48 h
[1] = system: 786-0 renal
[2] = system: A549 NSCLC
[3] = system: CAKI-1 renal
[4] = system: HL-60(TB) leukemia
[5] = system: HOP-18 NSCLC
[6] = system: HOP-92 NSCLC
[7] = system: M14 melanoma
[8] = system: NCI-H460 lung
[9] = system: SK-MEL-28 melanoma
[10] = system: SW-620 colon

| SMILES | TGI [1] | TGI [2] | TGI [3] [µM] | TGI [4] | TGI [5] [µM] | TGI [6] | TGI [7] | TGI [8] | TGI [9] [µM] | TGI [10] | GI50 [1] [nM] | GI50 [2] [nM] | GI50 [4] [nM] | GI50 [6] [nM] | GI50 [7] [nM] | GI50 [8] [nM] | GI50 [10] [nM] |
| --- | --- | --- | --- | --- | --- | --- | --- | --- | --- | --- | --- | --- | --- | --- | --- | --- | --- |
| Cc1ccc(N2C(=O)C3C=CC(n4[nH]c(=O)n(Cc5ccccc5)c4=O)CC3C2=O)cc1 (stereo not given) | > 100 µM | > 100 µM | > 100 | > 100 µM | > 100 | > 100 µM | > 100 µM | > 100 µM | > 100 | > 100 µM | – | – | – | – | – | – | – |
| CCc1cccc(C)c1NC(=O)C(=O)Cc1nc2ccccc2s1 | > 100 µM | > 100 µM | > 100 | > 100 µM | > 100 | 5.88 µM | > 100 µM | > 100 µM | > 100 | > 100 µM | – | – | – | – | – | – | – |
| O=S1(=O)OCCOS(=O)(=O)C1Cc1ccccc1 | > 100 µM | > 100 µM | > 100 | 54.5 µM | 50 | > 100 µM | – | > 100 µM | > 100 | > 100 µM | – | – | – | – | – | – | – |
| COC(=O)C1=C(c2cc(OC)c(OC)c(OC)c2)OC(c2ccc(OC)c(OC)c2)C1 (stereo not given) | > 100 µM | > 100 µM | > 100 | > 100 µM | > 100 | > 100 µM | > 100 µM | > 100 µM | > 100 | 87 µM | – | – | – | – | – | – | – |
| CC(=O)C1C(=O)C(=O)N(c2ccccc2C(C)C)C1=O (stereo not given) | > 100 µM | > 100 µM | > 100 | > 100 µM | > 100 | > 100 µM | > 100 µM | > 100 µM | > 100 | > 100 µM | – | – | – | – | – | – | – |
| COC(=O)C1=CC2C(=O)OC1CC2C#N (stereo not given) | > 100 µM | > 100 µM | > 100 | > 100 µM | > 100 | > 100 µM | > 100 µM | > 100 µM | > 100 | > 100 µM | – | – | – | – | – | – | – |
| Cc1cc(Cl)ccc1NC(=O)CC/C(CC(=O)C(C)C)=N\NC(=O)C[n+]1ccccc1 | > 100 µM | > 100 µM | > 100 | > 100 µM | > 100 | > 100 µM | > 100 µM | > 100 µM | > 100 | > 100 µM | – | – | – | – | – | – | – |
| COC(=O)CCC(NC(=S)N/N=C/c1ccco1)C(=O)OC (stereo not given) | > 100 µM | > 100 µM | – | > 100 µM | > 100 | – | > 100 µM | > 100 µM | > 100 | > 100 µM | – | – | – | – | – | – | – |
| COc1c2c(nc3ccccc13)-c1cc3c(c(=O)n1C2)COC(=O)C3(O)CC(=O)N1CCOCC1 (stereo not given) | 12.8 µM | > 92.4 µM | 54 | 17.6 µM | > 79.2 | 63.4 µM | 41.4 µM | 30.9 µM | > 98.2 | > 100 µM | – | – | – | – | – | – | – |
| CCOC(=O)NC(=O)c1cn(CCN2CCN(c3ncnc4nc[nH]c34)CC2)c(=O)[nH]c1=O | > 100 µM | > 100 µM | – | > 100 µM | > 100 | > 100 µM | > 100 µM | > 100 µM | > 100 | > 100 µM | – | – | – | – | – | – | – |
| COc1ccc(C(=O)C(c2ccc(OC)cc2)C2(O)C(=O)Nc3c2ccc(Cl)c3C)cc1 (stereo not given) | > 100 µM | > 100 µM | – | > 100 µM | > 100 | – | > 100 µM | > 100 µM | > 100 | > 100 µM | – | – | – | – | – | – | – |
| C1=C2/CC[C@H](Sc3ccccc3)[C@H]2C2(CCCCC/1)OCCO2 | > 100 µM | > 100 µM | 63 | 65.7 µM | > 100 | 59.1 µM | 93 µM | > 100 µM | > 100 | > 100 µM | – | – | – | – | – | – | – |
| COc1ccc(C(C#N)Cc2cc(OC)c(OC)c(OC)c2)cc1 (stereo not given) | > 100 µM | > 100 µM | > 100 | 64.3 µM | > 100 | > 100 µM | > 100 µM | > 100 µM | > 100 | > 100 µM | – | – | – | – | – | – | – |
| C[C@]12CCC3[C@@H](CC[C@@H]4c5nonc5CC[C@]34C)C1C/C(=N/O)C2=O (stereo not given in full) | > 100 µM | > 100 µM | > 100 | 13.3 µM | > 100 | > 100 µM | > 100 µM | > 100 µM | > 100 | > 100 µM | – | – | – | – | – | – | – |
| O=C(c1ccccc1)c1cccc(C(=O)c2ccccc2)c1 | > 100 µM | > 100 µM | > 100 | – | > 100 | > 100 µM | > 100 µM | > 100 µM | > 100 | > 100 µM | – | – | – | – | – | – | – |
| CN(/N=C/c1cccc2cccnc12)c1ccccc1 | > 100 µM | > 100 µM | > 100 | > 100 µM | > 100 | > 100 µM | > 100 µM | > 100 µM | > 100 | > 100 µM | – | – | – | – | – | – | – |
| COc1ccc(/C=C\c2cc(OC)c(OC)c(OC)c2)cc1OC | 40.4 µM and > 100 µM | 40.4 µM and > 100 µM | 40.4 | 0.332 µM and 0.0582 µM | 40.4 | 40.4 µM and 8.55 µM | 40.4 µM and 18.1 µM | 40.4 µM and 16.7 µM | > 100 | 40.4 µM and > 100 µM | 616 | 211 | 23.1 | 47.3 | 60.3 | 181 | 47.2 |
| O=C1CC(S(=O)(=O)O)C=C1Nc1cccc(Cl)c1 (stereo not given) | > 100 µM | > 100 µM | > 100 | > 100 µM | > 100 | > 100 µM | > 100 µM | > 100 µM | > 100 | > 100 µM | – | – | – | – | – | – | – |
| O=CC1CCCc2ccccc21 (stereo not given) | > 100 µM | > 100 µM | > 100 | > 100 µM | > 100 | > 100 µM | > 100 µM | > 100 µM | > 100 | > 56.6 µM | – | – | – | – | – | – | – |
